From the supplement of paper PMC10307832

Tests used:
Test in all cases: relative viability (nuclei count vs DMSO), 5 days (fraction); higher = more cells survive
IPA-3 + Navitoclax = compound: C1=CC=C2C(=C1)C=CC(=C2SSC3=C(C=CC4=CC=CC=C43)O)O [IPA-3] + CC1(C)CCC(c2ccc(Cl)cc2)=C(CN2CCN(c3ccc(C(=O)NS(=O)(=O)c4ccc(N[C@H](CCN5CCOCC5)CSc5ccccc5)c(S(=O)(=O)C(F)(F)F)c4)cc3)CC2)C1 [Navitoclax] (partner 0.5 µM)
In short: (§1)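 Lung cancer cell lines were seeded in 1536-well plates and dosed by pin tool the next day, with either a single drug or a fixed anchor-drug dose combined with five library-drug doses (not always all listed) spaced in √10 steps. Five days later, one step fixed the cells and stained their nuclei (final 0.05% Triton X-100, 1% formaldehyde, 1 ug/ml Hoechst), and nuclei were counted on 4× images. Relative viability is the nuclei count in treated wells divided by the count in vehicle wells, and each value is the median of duplicate plates.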

IPA-3 + Vorinostat = compound: C1=CC=C2C(=C1)C=CC(=C2SSC3=C(C=CC4=CC=CC=C43)O)O [IPA-3] + O=C(CCCCCCC(=O)Nc1ccccc1)NO [Vorinostat] (partner 1 µM)
In short: as §1

Doramapimod + Vorinostat = compound: Cc1ccc(-n2nc(C(C)(C)C)cc2NC(=O)Nc2ccc(OCCN3CCOCC3)c3ccccc23)cc1 [Doramapimod] + O=C(CCCCCCC(=O)Nc1ccccc1)NO [Vorinostat] (partner 1 µM)
In short: as §1

Row | Cell Line | relative viability (IPA-3 + Navitoclax; first compound 0.2 µM) | relative viability (IPA-3 + Navitoclax; first compound 0.6325 µM) | relative viability (IPA-3 + Navitoclax; first compound 2 µM) | relative viability (IPA-3 + Navitoclax; first compound 6.325 µM) | relative viability (IPA-3 + Navitoclax; first compound 20 µM) | relative viability (IPA-3 + Vorinostat; first compound 0.2 µM) | relative viability (IPA-3 + Vorinostat; first compound 0.6325 µM) | relative viability (IPA-3 + Vorinostat; first compound 2 µM) | relative viability (IPA-3 + Vorinostat; first compound 6.325 µM) | relative viability (IPA-3 + Vorinostat; first compound 20 µM) | relative viability (Doramapimod + Vorinostat; first compound 0.02 µM) | relative viability (Doramapimod + Vorinostat; first compound 0.06325 µM) | relative viability (Doramapimod + Vorinostat; first compound 0.2 µM) | relative viability (Doramapimod + Vorinostat; first compound 0.6325 µM) | relative viability (Doramapimod + Vorinostat; first compound 2 µM)
1 | NCI-H1915 | 0.794 | 0.817 | 0.782 | 0.782 | 0.738 | 0.581 | 0.497 | 0.505 | 0.492 | 0.533 | 0.52 | 0.571 | 0.551 | 0.563 | 0.442
2 | NCI-H1944 | 1.07 | 0.899 | 1.1 | 1.07 | 1.02 | 0.674 | 0.492 | 0.479 | 0.574 | 0.527 | 0.504 | 0.616 | 0.575 | 0.665 | 0.611
3 | NCI-H1975 | 1.22 | 0.932 | 1.06 | 1.17 | 1.17 | 0.791 | 0.672 | 0.712 | 0.83 | 0.831 | 0.733 | 0.724 | 0.699 | 0.758 | 0.636
4 | NCI-H1993 | 0.973 | 0.911 | 0.896 | 0.894 | 0.838 | 1.15 | 0.639 | 0.758 | 0.725 | 0.918 | 0.835 | 0.723 | 0.819 | 1.18 | 0.834
5 | NCI-H2009 | 1.29 | 1.17 | 1.19 | 1.16 | 1.15 | 0.858 | 0.685 | 0.89 | 0.723 | 0.642 | 0.765 | 0.745 | 0.762 | 0.92 | 0.777
6 | NCI-H2023 | 1.1 | 0.977 | 0.984 | 1.04 | 0.967 | 0.866 | 0.681 | 0.789 | 0.699 | 0.839 | 0.718 | 0.664 | 0.556 | 0.607 | 0.519
